Measurements from US4663309A, “Novel peptide hormones with calcitonin-like activity” (University Patents, Inc., priority 1985, dated 1987).
Entries after “also recorded” stand apart in the source; their conditions may differ. Bridge positions count the residues as written; N and C are the ends. Peptide text beside a SMILES is read from it.

Tests used:
male Sprague-Dawley rats [1] = experiment: In vivo relative hypocalcemic potency in rats (Example 10); set-up: species or system rat
Experimental: The relative hypocalcemic potency of MCT-II and SCT-I was assessed by giving 3 to 4 week-old male Sprague-Dawley rats (Charles River Breeding Laboratories) subcutaneous injections of hormone in 0.9% saline containing 0.1% BSA. In each experiment, 25 rats were divided into 5 groups of 5 rats each and each group given either saline alone or saline with hormone. Blood samples were obtained by cardiac puncture from the ether-anesthetized rats 1 hr after injection. 200 μl of the blood plasma was diluted in 5 ml of 5% trichloroacetic acid-1000 ppm lithium (Chem-Chek Consulting Inc., South Boundbrook, NJ) and centrifuged before determining the calcium concentration by plasma emission spectrometry (Beckman Spectra Span IV™, Beckman Instruments). Calcium standards were also purchased from Chem-Chek Consulting Inc.

male Sprague-Dawley rats [2] = experiment: In vivo hypocalcemic rat bioassay (Example 6)

CC(C)C[C@H](NC(=O)[C@H](CCCCN)NC(=O)[C@H](CCC(N)=O)NC(=O)[C@H](CC(C)C)NC(=O)[C@H](CCC(N)=O)NC(=O)[C@H](CCC(N)=O)NC(=O)[C@H](CC(C)C)NC(=O)[C@H](CC(C)C)NC(=O)[C@@H]1CSSC[C@H](N)C(=O)N[C@@H](CO)C(=O)N[C@@H](CC(N)=O)C(=O)N[C@@H](CC(C)C)C(=O)N[C@@H](CO)C(=O)N[C@@H]([C@@H](C)O)C(=O)N1)C(=O)N[C@@H](CC(C)C)C(=O)N[C@@H](CCC(N)=O)C(=O)N[C@@H](CCCCN)C(=O)N[C@@H](CC(C)C)C(=O)N[C@@H](CCCCN)C(=O)N[C@@H](CCC(N)=O)C(=O)N[C@@H](Cc1ccc(O)cc1)C(=O)N1CCC[C@H]1C(=O)N[C@@H](CCCNC(=N)N)C(=O)N[C@H](C(=O)N[C@@H](CC(N)=O)C(=O)N[C@H](C(=O)NCC(=O)N[C@@H](CO)C(=O)NCC(=O)N[C@H](C(=O)N1CCC[C@H]1C(N)=O)[C@@H](C)O)[C@@H](C)O)[C@@H](C)O [MCT-II] (H-CSNLSTCLLQQLQKLLQKLKQYPRTNTGSGTP-NH2; disulfide 1-7; N-terminus assumed)
Activity relative to MCT-I (male Sprague-Dawley rats [1]; in all assays used to compare them): 10 times | Hypocalcemic potency relative to SCT-I (male Sprague-Dawley rats [1]; subcutaneous, 0.1 to 100 ng/100 g body weight, 1 hr after injection, b99: all assays used to compare them): indistinguishable from that of our preparation of SCT-I; also recorded: as active as SCT-I

CC(C)C[C@@H]1NC(=O)[C@H](CC(N)=O)NC(=O)CNC(=O)[C@@H](N)CSSC[C@@H](C(=O)N[C@@H](CC(C)C)C(=O)N[C@@H](CC(C)C)C(=O)N[C@@H](CCC(N)=O)C(=O)N[C@@H](CCC(N)=O)C(=O)N[C@@H](Cc2c[nH]c3ccccc23)C(=O)N[C@@H](CCC(N)=O)C(=O)N[C@@H](CCCCN)C(=O)N[C@@H](CC(C)C)C(=O)N[C@@H](CC(C)C)C(=O)N[C@@H](CCC(N)=O)C(=O)N[C@@H](CCCCN)C(=O)N[C@@H](CC(C)C)C(=O)N[C@@H](CCCCN)C(=O)N[C@@H](CCC(N)=O)C(=O)N[C@@H](CC(C)C)C(=O)N2CCC[C@H]2C(=O)N[C@@H](CCCNC(=N)N)C(=O)N[C@H](C(=O)N[C@@H](CC(N)=O)C(=O)N[C@H](C(=O)NCC(=O)N[C@@H](CO)C(=O)NCC(=O)N[C@H](C(=O)N2CCC[C@H]2C(N)=O)[C@@H](C)O)[C@@H](C)O)[C@@H](C)O)NC(=O)[C@H]([C@@H](C)O)NC(=O)[C@H](CO)NC1=O [MCT-I] (H-CGNLSTCLLQQWQKLLQKLKQLPRTNTGSGTP-NH2; disulfide 1-7)
Activity relative to PCT (male Sprague-Dawley rats [2]; hypocalcemic response in rats, b98 covers in vitro and in vivo activity): approximately as active as PCT; also recorded: equivalent to that of PCT | In vivo potency relative to SCT-I (fold less potent) (male Sprague-Dawley rats [2]; subcutaneous, plasma calcium 1 hour after injection): about 10 fold
